Experiment [1] is described as follows: Inhibition of MT3 melatonin binding site from hamster brain membrane. Further details: species or system Cricetinae.
Experiment [2] addresses T1, Melatonin receptor type 1B (Homo sapiens, UniProt P49286).
T1 sequence (P49286 whole entry): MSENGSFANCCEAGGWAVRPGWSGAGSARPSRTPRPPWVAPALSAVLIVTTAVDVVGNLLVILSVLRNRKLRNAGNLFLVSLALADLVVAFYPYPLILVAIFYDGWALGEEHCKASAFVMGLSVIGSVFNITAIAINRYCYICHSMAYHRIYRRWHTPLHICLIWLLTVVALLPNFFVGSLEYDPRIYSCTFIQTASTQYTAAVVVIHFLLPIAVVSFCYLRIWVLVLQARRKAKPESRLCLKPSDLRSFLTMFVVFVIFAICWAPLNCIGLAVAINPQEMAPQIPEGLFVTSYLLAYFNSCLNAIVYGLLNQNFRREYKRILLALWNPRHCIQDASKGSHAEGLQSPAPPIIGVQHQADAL
Kind of experiment: Displacement of 2-[125I]iodomelatonin from human MT2 receptor expressed in HEK293 cells. The class given is cell-based.

Experiment [3] in a line: Selectivity ratio, IC50 for human MT2 melatonin receptor to IC50 for hamster MT3 melatonin binding site.
The nature of experiment [4]: Selectivity ratio, IC50 for human MT1 melatonin receptor to IC50 for hamster MT3 melatonin binding site.
Experiment [5] deals with Melatonin receptor type 1A (Homo sapiens, UniProt P48039). Kind of experiment: Displacement of 2-[125I]iodomelatonin from human MT1 receptor expressed in HEK293 cells. The format is cell-based.
Melatonin receptor type 1A, sequence (P48039 whole entry): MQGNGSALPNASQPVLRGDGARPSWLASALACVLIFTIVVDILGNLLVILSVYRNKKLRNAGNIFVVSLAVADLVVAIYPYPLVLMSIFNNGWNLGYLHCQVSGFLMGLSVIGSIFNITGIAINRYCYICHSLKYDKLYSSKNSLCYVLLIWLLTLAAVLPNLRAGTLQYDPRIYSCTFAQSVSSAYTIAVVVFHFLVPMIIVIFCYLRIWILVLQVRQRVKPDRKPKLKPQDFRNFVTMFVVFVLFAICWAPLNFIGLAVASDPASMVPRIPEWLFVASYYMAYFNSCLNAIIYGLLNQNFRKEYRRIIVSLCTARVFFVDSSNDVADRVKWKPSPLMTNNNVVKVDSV

A word on the Ki: it is the equilibrium dissociation constant of an inhibitor or competing ligand from its target. A high value points to weaker binding. For orientation: IC50 means the concentration needed to halve the response being measured.

`COc1ccc2c(c(CCNC(C)=O)c(I)n2C)c1[N+](=O)[O-]` gave a Ki in experiment [1] of 0.3 nM.

With `COC(=O)Nc1ccc2occ(CCNC(=O)c3ccco3)c2c1`, the IC50 in experiment [1] is 56 nM; in experiment [2], more than 10000 nM; in experiment [5], more than 10000 nM. Also, the Ratio IC50 in experiment [3] and in experiment [4] was more than 178 each time.

The compound `COc1ccc2occ(CCNC(C)=O)c2c1` showed an IC50 in experiment [1] of 64 nM.

As for `COC(=O)Nc1ccc2occ(CCNC(=O)C3CCCC3)c2c1`, the IC50 in experiment [2] and in experiment [5] was 5320 nM in each case.

Turning to `CNC(=O)c1ccc2occ(CCNC(=O)C3CCCC3)c2c1`, the IC50 in experiment [2] and in experiment [5] was more than 10000 nM in each case.

For `COc1cc2c(cc1OC)-c1c(c3cc(O)ccc3n1C)C2=O`, affinity in experiment [1] was put at a Ki of 0.19 nM.

Compound `COC(=O)c1ccc2occ(CCNC(C)=O)c2c1` gave an IC50 in experiment [1] of 14 nM.

On to `COC(=O)c1ccc2occ(CCNC(=O)C3CCCC3)c2c1`, for which the values for the IC50 in experiment [1], in experiment [2] and in experiment [5] were 18 nM, 389 nM and 3880 nM, respectively. The figures for the Ratio IC50 in experiment [3] and in experiment [4] were 21.6 and 215, respectively.

In turn, `COC(=O)Nc1ccc2occ(CCNC(C)=O)c2c1` had an IC50 in experiment [1] of 16 nM.

For the compound `COC(=O)Nc1ccc2occ(CCNC(=O)C(C)C)c2c1`, the figures for the IC50 in experiment [1], in experiment [2] and in experiment [5] were 23 nM, 4580 nM and 5350 nM, respectively. Further, the Ratio IC50 in experiment [3] stood at 199; in experiment [4], 232.

Regarding `CC(=O)NCCc1coc2ccc(C(N)=O)cc12`, the IC50 is 82 nM in experiment [1], 1000 nM in experiment [2] and more than 10000 nM in experiment [5]. The Ratio IC50 was 12 in experiment [3] and more than 122 in experiment [4].

On to `COC(=O)Nc1ccc2[nH]cc(CCNC(C)=O)c2c1`, for which the IC50 in experiment [2] came out at 4000 nM; in experiment [5], 1000 nM.

With `CNC(=O)c1ccc2occ(CCNC(=O)C3CC3)c2c1`, the IC50 is 41 nM in experiment [1], more than 10000 nM in experiment [2] and 1220 nM in experiment [5]. The values for the Ratio IC50 in experiment [3] and in experiment [4] were more than 244 and more than 29, respectively.

For `C=CCC(=O)NCCc1coc2ccc(NC(=O)OC)cc12`, the half-maximal inhibitory concentration (IC50) in experiment [1] turned out to be 11 nM; in experiment [2], 560 nM; in experiment [5], 2690 nM. The Ratio IC50 stood at 51 in experiment [3] and 244 in experiment [4].

Consider `COC(=O)Nc1ccc2occ(CCNC(=O)C3CC3)c2c1`, for which the figures for the IC50 in experiment [1], in experiment [2] and in experiment [5] were 24 nM, 5900 nM and 8180 nM, respectively. The Ratio IC50 is 245 in experiment [3] and 340 in experiment [4].

`COc1cc2nc(N3CCN(C(=O)c4ccco4)CC3)nc(N)c2cc1OC` [PRAZOSIN]: in experiment [1], the IC50 was determined as 7.8 nM.

As for `COC(=O)c1ccc2occ(CCNC(=O)C(C)C)c2c1`, the IC50 in experiment [1] stood at 65 nM.

On to `NC(=O)c1ccc2occ(CCNC(=O)c3ccco3)c2c1`, for which the IC50 is 67 nM in experiment [1], more than 10000 nM in experiment [2] and more than 10000 nM in experiment [5]. Moreover, the Ratio IC50 in experiment [3] and in experiment [4] was more than 149 each time.

`CNC(=O)c1ccc2occ(CCNC(C)=O)c2c1`: the IC50 in experiment [1] is 12 nM; in experiment [2], more than 1000 nM; in experiment [5], 189 nM. Also, the Ratio IC50 was more than 83 in experiment [3] and 16 in experiment [4].

Take `COC(=O)c1ccc2occ(CCNC(=O)c3ccco3)c2c1`: the IC50 is 53 nM in experiment [1], more than 10000 nM in experiment [2] and more than 10000 nM in experiment [5]. In addition, the Ratio IC50 in experiment [3] and in experiment [4] was more than 188 throughout.

With `CC(=O)NCCc1coc2ccc(NC(=O)C(F)(F)F)cc12`, the IC50 is 2000 nM in experiment [2] and more than 10000 nM in experiment [5].

The record behind these values is ChEMBL document CHEMBL1157185, “Design and synthesis of benzofuranic derivatives as new ligands at the melatonin-binding site MT3” (Bioorg Med Chem, 2008).
